# Test results: patent US4338331A, “Isoindoline derivative and a therapeutic composition thereof” (priority 1979, dated 1982)
# Values joined by “and” are separate entries in the source; they are usually repeats but may differ in a detail not shown here. Identical values can stand only once. “Also recorded” adds a separate entry of the source.
# What was measured:
# [1] = tested on: rat with spontaneous hypertension (SHR); assay: Hypotensive activity: arterial pressure of the rat with spontaneous hypertension (TABLE 4); type: in vivo, SHR male rats; conditions: 1.2 mg/kg/day oral
# Procedure: The effects of subacute oral treatment with CM/1 on the arterial pressure of the rat with spontaneous hypertension (SHR) were followed on 10 genetically hypertensive (SHR) male rats obtained from Charles River. They were divided at random into two groups of 5 each, and treated in the following manner:
# GROUP A: CONTROLS--10% gum arabic, 5 ml/kg/day by oral administration using a gastro-oesophageal probe;
# GROUP B: CM/1--1.2 mg/5 ml of gum arabic/kg/day by oral administration using a gastro-oesophageal probe.
# The treatment was carried out for 28 consecutive days. The arterial pressure was recorded at regular intervals by the bloodless method, using the "BP Recorder 8005" apparatus of "W+W Electronic".
# The measurement was made in the following manner: the tail of the animals was carefully depilated and then inserted into a sleeve of suitable diameter connected by a tube to a pump and a pressure gauge. The tail was then inserted into a circular transducer, which was connected to a pulse counter. When the apparatus was switched on, the pressure increased in the sleeve until the blood flow was arrested.
# The pressures were now read from the pressure gauge.
# Before beginning the experiments, the animals had been subjected for a week to this procedure in order to accustom them to handling.
# female Wistar rats [2] = assay: Diuretic and saluretic activity: excretion of an aqueous saline load (TABLE 1); type: in vivo, Wistar rat; conditions: 5 mg/kg oral
# Procedure: Both the CM/1 and the Indapamide were administered orally after being suitably dissolved in the following solvent:
# (§1) The controls were treated with an equal volume of solvent. The experiments were carried out on animals which had regularly fasted for at least 12 hours, but had free access to water.
# (§2) The sodium and potassium in the urine were determined by a photometric method.
# The effect on the excretion of an aqueous saline load was first checked. 18 female Wistar rats were used divided into three groups, one of 8 and two of 5, and these were treated in the following manner:
# GROUP A: CONTROLS 1 ml of solvent made up to 50 ml with 0.9% sodium chloride solution, administered by gastric probe, per kg of body weight (=50 ml/kg in terms of volume);
# GROUP B: INDAPAMIDE 5 mg/kg in 1 ml/kg of solvent made up to 50 ml/kg with sodium chloride solution, administered by gastric probe;
# GROUP C: CM/1,5 mg/kg using the same method as for the Indapamide.
# The rats were placed immediately in individual metabolic cages for collecting the urine during the three hours subsequent to the load. The quantity of urine excreted is given as a percentage of the quantity administered. The sodium and potassium are expressed in mEq/3h.
# Values of P less than 0.05 have been considered significant.
# female Wistar rats [3] = assay: Effect on spontaneous diuresis (TABLE 3); type: in vivo, Wistar rat; conditions: 5 mg/kg oral; for Excreted sodium/potassium ratio: 12 h; for Potassium excretion / Sodium excretion: spontaneous diuresis
# Procedure: These investigations were carried out on Wistar rats of both sexes, having a body weight which is specified in each case in the relative tables, which compare the results with Indapamide. Both the CM/1 and the Indapamide were administered orally after being suitably dissolved in the following solvent:
# as §1, §2
# Finally, the effect on the new product of spontaneous diuresis was determined.
# These investigations were carried out on 15 female Wistar rats having a body weight varying from 230 to 260 g, and divided at random into three groups of 5. The animals were kept in individual metabolic cages overnight for a period of 12 hours in order to collect the urine spontaneously excreted. One group was treated as usual with 1 ml/kg of solvent by means of a gastric probe, and the other two were treated respectively with 5 mg/kg of Indapamide and 5 mg/kg of CM/1. The sodium and potassium were analysed as usual in the urine collected.
# [4] = individual rats, base of rats 1-5: 235, 215, 260, 265, 250
# [5] = saline load, mean ± standard error, n = 5
smiles,measurement,setting,value
"CC1c2ccccc2CN1NC(=O)c1ccc(Cl)c(S(N)(=O)=O)c1 (centres unmarked) [CM/1, 1-methyl-2-(3'-sulphamyl-4'-chlorobenzamido)-isoindoline]","Systolic arterial pressure measured bloodlessly, 7th day of treatment",[1]; [4],210 mm Hg and 205 mm Hg and 245 mm Hg and 225 mm Hg
same,"Systolic arterial pressure measured bloodlessly, 14th day of treatment",[1]; [4],195 mm Hg and 215 mm Hg and 235 mm Hg and 200 mm Hg and 220 mm Hg
same,"Systolic arterial pressure measured bloodlessly, 21st day of treatment",[1]; [4],195 mm Hg and 210 mm Hg and 220 mm Hg and 180 mm Hg
same,"Systolic arterial pressure measured bloodlessly, 28th day of treatment",[1]; [4],185 mm Hg and 210 mm Hg and 205 mm Hg
same,"Systolic arterial pressure measured bloodlessly, 7th day of treatment","[1]; mean, n = 5, base 245.0 ± 9.08",219.0 ± 7.31 mm Hg
same,"Systolic arterial pressure measured bloodlessly, 14th day of treatment","[1]; mean, n = 5, base 245.0 ± 9.08",213.0 ± 7.17 mm Hg
same,"Systolic arterial pressure measured bloodlessly, 21st day of treatment","[1]; mean, n = 5, base 245.0 ± 9.08",203.0 ± 7.00 mm Hg
same,"Systolic arterial pressure measured bloodlessly, 28th day of treatment","[1]; mean, n = 5, base 245.0 ± 9.08",198.0 ± 5.38 mm Hg
same,maximum reduction of the systolic arterial pressure,[1]; recording on the 28th day,20%
same,anti-hypertensive activity,"[1]; SHR, 28 days, 1.2 mg/kg/day",significantly reduces the systolic arterial pressure; also recorded: shows anti-hypertensive activity
same,"diuretic and saluretic effect, CM/1 compared with Indapamide",female Wistar rats [2],considerably greater
same,"Urine excretion of load in percent of quantity administered (cumulative excretion), 1 hour",female Wistar rats [2]; individual rats,16.7% and 14.8% and 11.5% and 9.1% and 12.9%
same,"Urine excretion of load in percent of quantity administered (cumulative excretion), 2 hours",female Wistar rats [2]; individual rats,68.3% and 32.2% and 48.5% and 64.5% and 48.7%
same,"Urine excretion of load in percent of quantity administered (cumulative excretion), 3 hours",female Wistar rats [2]; individual rats,108.8% and 94.5% and 109.2% and 94.8% and 90.4%
same,"Urine excretion of load in percent of quantity administered (cumulative excretion), 1 hour","female Wistar rats [2]; mean ± standard error, n = 5",13.0 ± 1.31%
same,"Urine excretion of load in percent of quantity administered (cumulative excretion), 2 hours","female Wistar rats [2]; mean ± standard error, n = 5",52.44 ± 6.46%
same,"Urine excretion of load in percent of quantity administered (cumulative excretion), 3 hours","female Wistar rats [2]; mean ± standard error, n = 5",99.54 ± 3.93% and 99.5%
same,diuretic and saluretic effect,female Wistar rats [2]; relative to the controls,significant diuretic and saluretic effect relative to the controls
same,ratio of the sodium to the potassium excreted during the 3 hours,female Wistar rats [2]; saline load,5.91
same,Potassium excretion,"female Wistar rats [2]; saline load, individual rats",0.297 mEq/3h and 0.310 mEq/3h and 0.276 mEq/3h and 0.280 mEq/3h and 0.284 mEq/3h
same,Sodium excretion,"female Wistar rats [2]; saline load, individual rats",1.81 mEg/3h and 1.77 mEg/3h and 1.56 mEg/3h and 1.68 mEg/3h and 1.73 mEg/3h
same,Potassium excretion,female Wistar rats [2]; [5],0.289 ± 0.062 mEq/3h
same,Sodium excretion,female Wistar rats [2]; [5],1.71 ± 0.043 mEg/3h
same,excreted sodium and potassium,female Wistar rats [2]; versus controls,significantly higher than the controls
same,diuretic action,female Wistar rats [3],"marked diuretic action, which is stronger in the case of the product CM/1"
same,"ratio of sodium to potassium excretion, CM/1 compared with Indapamide",female Wistar rats [3],"higher in the group treated with the product CM/1, and the difference reaches statistical significance"
same,sodium and potassium excretion,female Wistar rats [3],increased
same,Excreted sodium/potassium ratio,female Wistar rats [3]; individual rats,1.651 and 2.262 and 2.277 and 2.188 and 1.746
same,Excreted sodium/potassium ratio,"female Wistar rats [3]; mean ± standard error, n = 5",2.024 ± 0.134
same,ml of urine collected in 12 hours,female Wistar rats [3]; individual rats,10.5 mL and 17.5 mL and 21.0 mL and 16.6 mL and 15.0 mL
same,ml of urine collected in 12 hours,"female Wistar rats [3]; mean ± standard error, n = 5",16.12 ± 1.71 mL
same,Potassium excretion,female Wistar rats [3]; individual rats,3.708 mEq/12h and 3.042 mEq/12h and 3.911 mEq/12h and 3.508 mEq/12h and 3.430 mEq/12h
same,Sodium excretion,female Wistar rats [3]; individual rats,6.123 mEq/12h and 6.880 mEq/12h and 8.906 mEq/12h and 7.675 mEq/12h and 5.989 mEq/12h
same,Potassium excretion,"female Wistar rats [3]; mean ± standard error, n = 5",3.5198 ± 0.145 mEq/12h
same,Sodium excretion,"female Wistar rats [3]; mean ± standard error, n = 5",7.114 ± 0.539 mEq/12h
